The values below come from ChEMBL document CHEMBL4265902, “Design and synthesis of cyclopropane-based conformationally restricted GABA analogues as selective inhibitors for betaine/GABA transporter 1” (Bioorg Med Chem Lett, 2018).

Test [1] deals with Sodium- and chloride-dependent GABA transporter 1 (Homo sapiens) (UniProt P30531). The experiment in a line: Inhibition of human GAT1 expressed in CHO cells assessed as reduction in [3H]GABA uptake at 100 uM after 20 mins by liquid scintillation counting analysis relative to control. The format is cell-based.
Test [2] deals with T1, Sodium- and chloride-dependent betaine transporter (Homo sapiens) (UniProt P48065).
T1 sequence (whole entry): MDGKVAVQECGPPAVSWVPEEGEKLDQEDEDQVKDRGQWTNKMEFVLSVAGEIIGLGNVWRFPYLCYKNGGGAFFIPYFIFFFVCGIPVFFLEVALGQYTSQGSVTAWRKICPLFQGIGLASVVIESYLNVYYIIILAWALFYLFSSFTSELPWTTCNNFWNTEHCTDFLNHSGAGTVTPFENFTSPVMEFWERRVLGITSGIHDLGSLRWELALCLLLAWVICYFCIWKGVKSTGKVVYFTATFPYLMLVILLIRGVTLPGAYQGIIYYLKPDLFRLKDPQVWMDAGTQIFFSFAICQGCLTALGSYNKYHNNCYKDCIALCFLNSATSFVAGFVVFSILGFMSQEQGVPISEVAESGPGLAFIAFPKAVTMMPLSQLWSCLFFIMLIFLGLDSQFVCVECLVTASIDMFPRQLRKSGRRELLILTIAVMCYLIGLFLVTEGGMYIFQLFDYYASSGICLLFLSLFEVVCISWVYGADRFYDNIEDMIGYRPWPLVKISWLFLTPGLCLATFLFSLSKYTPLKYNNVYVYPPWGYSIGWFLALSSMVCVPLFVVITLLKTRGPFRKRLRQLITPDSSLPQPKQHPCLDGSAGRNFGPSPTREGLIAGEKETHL
The experiment in a line: Inhibition of human BGT1 expressed in CHO cells assessed as reduction in [3H]GABA uptake at 100 uM after 20 mins by liquid scintillation counting analysis relative to control. Type of test: cell-based.

The target of test [3] is T2, Sodium- and chloride-dependent GABA transporter 3 (Homo sapiens) (UniProt P48066).
T2 sequence (whole entry): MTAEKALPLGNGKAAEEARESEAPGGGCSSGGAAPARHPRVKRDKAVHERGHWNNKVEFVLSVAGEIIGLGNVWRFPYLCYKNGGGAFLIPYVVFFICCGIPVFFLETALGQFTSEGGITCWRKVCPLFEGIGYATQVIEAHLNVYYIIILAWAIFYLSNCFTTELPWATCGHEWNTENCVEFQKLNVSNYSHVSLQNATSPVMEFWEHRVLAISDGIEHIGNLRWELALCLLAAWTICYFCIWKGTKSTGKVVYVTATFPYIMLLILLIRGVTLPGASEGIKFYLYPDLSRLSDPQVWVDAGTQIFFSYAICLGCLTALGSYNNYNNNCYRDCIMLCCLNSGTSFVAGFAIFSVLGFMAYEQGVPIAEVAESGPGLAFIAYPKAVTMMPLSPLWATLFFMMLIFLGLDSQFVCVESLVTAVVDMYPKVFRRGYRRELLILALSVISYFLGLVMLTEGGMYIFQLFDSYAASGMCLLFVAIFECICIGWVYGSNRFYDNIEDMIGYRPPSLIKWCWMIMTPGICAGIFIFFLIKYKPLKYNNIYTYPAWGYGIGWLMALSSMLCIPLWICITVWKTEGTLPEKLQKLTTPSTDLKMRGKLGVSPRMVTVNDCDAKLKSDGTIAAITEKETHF
The experiment in a line: Inhibition of human GAT3 expressed in CHO cells assessed as reduction in [3H]GABA uptake at 100 uM after 20 mins by liquid scintillation counting analysis relative to control. The format is cell-based.

Test [4] concerns the target T3, Sodium- and chloride-dependent GABA transporter 2 (Homo sapiens) (UniProt Q9NSD5).
T3 sequence (whole entry): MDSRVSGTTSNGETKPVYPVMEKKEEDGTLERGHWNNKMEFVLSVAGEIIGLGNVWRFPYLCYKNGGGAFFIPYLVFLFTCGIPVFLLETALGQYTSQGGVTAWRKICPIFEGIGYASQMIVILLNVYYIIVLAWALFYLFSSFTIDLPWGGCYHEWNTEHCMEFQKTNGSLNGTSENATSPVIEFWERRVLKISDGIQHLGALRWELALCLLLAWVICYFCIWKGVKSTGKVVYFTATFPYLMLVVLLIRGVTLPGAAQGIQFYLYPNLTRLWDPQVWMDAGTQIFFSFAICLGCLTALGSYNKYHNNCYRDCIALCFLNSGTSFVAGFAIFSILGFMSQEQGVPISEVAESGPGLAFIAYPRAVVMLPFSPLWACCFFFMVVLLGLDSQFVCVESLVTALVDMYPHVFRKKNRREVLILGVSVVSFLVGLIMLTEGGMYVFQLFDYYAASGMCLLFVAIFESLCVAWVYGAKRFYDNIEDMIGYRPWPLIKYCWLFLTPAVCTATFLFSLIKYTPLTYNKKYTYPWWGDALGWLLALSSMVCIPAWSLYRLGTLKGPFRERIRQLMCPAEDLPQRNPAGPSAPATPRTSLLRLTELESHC
The experiment in a line: Inhibition of human GAT2 expressed in CHO cells assessed as reduction in [3H]GABA uptake at 100 uM after 20 mins by liquid scintillation counting analysis relative to control. Type of test: cell-based.

The species named for another test is Homo sapiens. The experiment in a line: Selectivity for human BGT1 over human GAT3.

Sodium- and chloride-dependent GABA transporter 1 (Homo sapiens), sequence (P30531 whole entry, looked up): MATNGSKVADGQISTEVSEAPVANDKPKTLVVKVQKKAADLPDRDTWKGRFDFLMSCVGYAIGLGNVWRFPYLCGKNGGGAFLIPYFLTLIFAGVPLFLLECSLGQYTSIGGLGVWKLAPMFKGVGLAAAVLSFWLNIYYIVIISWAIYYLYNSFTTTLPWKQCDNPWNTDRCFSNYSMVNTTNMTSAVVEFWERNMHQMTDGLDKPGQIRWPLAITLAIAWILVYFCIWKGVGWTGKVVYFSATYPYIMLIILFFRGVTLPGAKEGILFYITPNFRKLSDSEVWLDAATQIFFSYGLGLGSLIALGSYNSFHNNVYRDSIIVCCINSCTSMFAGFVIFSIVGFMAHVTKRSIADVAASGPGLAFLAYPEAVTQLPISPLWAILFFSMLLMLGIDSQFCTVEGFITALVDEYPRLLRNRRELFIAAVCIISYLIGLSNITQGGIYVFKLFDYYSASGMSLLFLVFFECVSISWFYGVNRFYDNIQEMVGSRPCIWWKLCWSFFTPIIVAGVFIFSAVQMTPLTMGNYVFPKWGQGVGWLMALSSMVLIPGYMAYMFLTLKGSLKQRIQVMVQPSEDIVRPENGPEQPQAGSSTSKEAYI

Take `C[C@H](C(=O)O)[C@@H]1C[C@H]1N`: the inhibition (as a rule, the drop in the measured response relative to a control, in per cent) in test [1] is 0%; in test [2] it was 57.3%; in test [3] it was 25.6%.
Take `CC[C@@H](C(=O)O)[C@@H]1C[C@H]1N`: the inhibition was 8.6% in test [1], 13.4% in test [2], 3.3% in test [4] and -2.4% in test [3].
On to `C=C[C@@H](C(=O)O)[C@@H]1C[C@H]1N`, for which the inhibition in test [4] is -9.5%; in test [3], -3.6%.
Consider `N[C@@H]1C[C@H]1[C@@H](O)C(=O)O`, for which the inhibition in test [2] was found to be 44.7%; in test [4], 20.1%; in test [3], 8.3%. The Selectivity ratio in the test listed under Homo sapiens was 5 to 7.
Regarding `[N-]=[N+]=N[C@@H](C(=O)O)[C@@H]1C[C@H]1N`, the results for the inhibition in test [2], in test [4] and in test [3] were 57.2%, 6.8% and 11.8%, respectively. Further, the Selectivity ratio in the test filed under Homo sapiens lay within 5 to 7.
`C[C@@H](C(=O)O)[C@@H]1C[C@H]1N`: the inhibition in test [1] was 4.3%; in test [2], 62.7%; in test [4] it was -5.2%; in test [3], 9.3%. The Selectivity ratio in the test filed under Homo sapiens lay in the range of 5 to 7.
`N[C@@H]1C[C@H]1[C@@H](F)C(=O)O`: the inhibition in test [2] is 22.2%; in test [4], 45.3%; in test [3] it was 5.2%.
In the case of `CC[C@H](C(=O)O)[C@@H]1C[C@H]1N`, the inhibition in test [1] was 12.2%; in test [2], -1.3%; in test [4], -2.4%.
